According to patent US20250325529A1, “INHIBITORS OF FATTY ACID BINDING PROTEINS (FABPs), METHODS OF USE AND METHODS OF MAKING” (Celloram, inc., priority 2024, published 2025):
pKd: −log10 of the molar value.

What was measured:
[1] = Single dose IV and PO PK study in C57BL/6 mice; assay type: in vivo; settings: male C57BL/6 mice
Protocol: C57BL/6 male mice or Han Wistar rats were used, n=3 for each administration route and compound. Single dose of each compound was administered orally (PO, 10 mg/Kg) or by intravenous administration (IV, 1 mg/Kg). Following intravenous and oral administration, blood samples (ca 0.2 mL) were collected and compound amount was measured by HLPC. For IV group, blood samples were collected at 0.083, 0.25, 0.5, 1, 2, 4, 6, 8, and 24 hours post-dose. For PO group, blood samples were collected at 0.25, 0.5, 1, 2, 4, 6, 8, and 24 hours post-dose.

[2] = system: Salmonella typhimurium tester strain TA1537; assay: Ames test (Bacterial Reverse Mutation Test), TA1537; assay type: cell-based
Protocol: PD152 (compound 2) was tested for genotoxic and cytotoxic side effects by Ames test. The Ames test is a Bacterial Reverse Mutation Test of mutagenicity that utilizes Salmonella typhimurium tester strains TA98, TA100, TA1535, TA1537 and Escherichia coli tester strain WP2 uvrA (pKM101), both in the presence and absence of S9.
The compound PD152 was tested at 10 concentrations (0.032-1000 μg/plate) in the presence of, or absence of, the hepatic enzyme S9.
The aniline FABP4/5 inhibitor compound, 2-((2-((2,4-dichloro-5-isopropoxyphenyl)amino)-2-oxoethyl)thio)-2-methylpropanoic acid (compound “B104” as disclosed in WO2023043803A1) also was tested for genotoxic and cytotoxic side effects by Ames test. […]

[3] = system: NOD mouse model of autoimmune type 1 diabetes; assay: NOD mouse model of autoimmune type 1 diabetes; assay type: in vivo, NOD/ShiLtJ mice; settings: female NOD mice
Protocol: Female NOD/ShiLtJ mice were purchased from Jackson's lab at age of 7 weeks. Mice were housed in a temperature-controlled facility (23° C., 12-h light/dark cycle). Weekly non-fasting blood glucose concentrations were measured in the morning by tail vein prick starting at 8 weeks of age by using a blood glucose test meter (OTUltra2 system, Lifescam, USA) and strips according to manufacturer's instruction. Any reading of blood glucose higher than 200 mg/dL was confirmed by another test 24 hours later. Diabetes was diagnosed by 2 consensus positive blood glucose tests higher than 200 mg/dL. At 13 weeks of age, mice were divided into 3 treatments groups (n=15/group) as followed: 1) control group, treated with vehicle (0.5% methyl cellulose, 1% Tween 80); 2) PD152 treated group (40 mg/Kg in vehicle); 3) anti-CD3 treated group (5 μg/mouse, in PBS). Groups 1 and 2 were treated by gavage 5 days a week throughout the duration of the experiment. Group 3 was treated by IV injection for only 5 consecutive days. Mice were sacrificed at the age of 27 weeks.
NOD mouse model of autoimmune type 1 diabetes was used to test the efficacy of FABP4/5 inhibitor PD152 on spontaneous development of the disease. […] Blood glucose levels were measured weekly for monitoring the incidence of diabetes until termination at 27 weeks of age. […]

FABP4 = FABP4 (Homo sapiens (Human), UniProt P15090); assay: Fluorescence (ANS) competition binding assay, FABP4; settings: ANS displacement
Chain of FABP4 (P15090 whole entry, species assumed): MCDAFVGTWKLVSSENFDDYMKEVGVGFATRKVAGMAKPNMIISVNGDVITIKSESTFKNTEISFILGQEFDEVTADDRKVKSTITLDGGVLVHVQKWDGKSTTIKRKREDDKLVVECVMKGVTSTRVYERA
Protocol: This example illustrates a two-step fluorescence binding assay study used to determine the binding affinity of the various inhibitor compounds disclosed herein with the various FABPs: FABP3, FABP4, FABP5 and FABP7. Further secondary screening studies were carried out for compounds with high binding affinities toward the FABPs and based on their ability to activate the nuclear receptors PPARα, PPARγ, or PPARδ.
Binding assays for FABP3, FABP4, FABP5 and FABP7 were carried out by fluorescence titrations. His-tagged FABPs were bacterially expressed in E. coli, purified using Ni Sepharose beads, and the equilibrium dissociation constants (Kd) that characterize their interactions with different inhibitor compounds were measured by fluorescence competition assays. The method entails two steps as described in e.g., Lin, Q. et al., “Ligand selectivity of the peroxisome proliferator-activated receptor alpha,” Biochemistry 38, 185-190, doi:10.1021/bi9816094 [pii](1999). In the first step, Kd for the association of the protein with the fluorescent fatty acid probe ANS was measured. Protein (2 μM) was titrated with ANS from a concentrated solution in DMSO. Ligand binding was monitored by following the increase in the fluorescence of the ligand upon binding to the protein, and Kd for the association of ANS with the each FABP was computed from titration curves as described in e.g., Norris, A. W. & Li, E., “Fluorometric titration of the CRABPs,” Methods Mol Biol 89, 123-139 (1998)). In the second step, Kds for binding of non-fluorescent ligands were measured by monitoring their ability to displace ANS in the binding pocket of the protein. Each FABP was precomplexed with ANS at 1:1 molar ratio and titrated with the different compounds whose binding was reflected by a decrease in probe fluorescence. Kds were extracted from the EC50 of the competition curve and the measured Kd for ANS.

[4] = mouse, plasma, intravenous 1 mg/kg
[5] = TA1537, absence of S9, 0.0312 μg/plate
[6] = TA1537, absence of S9, 0.1 μg/plate
[7] = TA1537, absence of S9, 0.316 μg/plate
[8] = TA1537, absence of S9, 1 μg/plate
[9] = TA1537, absence of S9, 3.16 μg/plate
[10] = TA1537, absence of S9, 10 μg/plate
[11] = TA1537, absence of S9, 31.6 μg/plate
[12] = TA1537, absence of S9, 100 μg/plate
[13] = TA1537, absence of S9, 316 μg/plate
[14] = TA1537, absence of S9, 1000 μg/plate
[15] = TA1537, presence of S9, 0.0312 μg/plate
[16] = TA1537, presence of S9, 0.1 μg/plate
[17] = TA1537, presence of S9, 0.316 μg/plate
[18] = TA1537, presence of S9, 1 μg/plate
[19] = TA1537, presence of S9, 3.16 μg/plate
[20] = TA1537, presence of S9, 10 μg/plate
[21] = TA1537, presence of S9, 31.6 μg/plate
[22] = TA1537, presence of S9, 100 μg/plate
[23] = TA1537, presence of S9, 316 μg/plate
[24] = TA1537, presence of S9, 1000 μg/plate

CC(C)Oc1nc(NC(=O)CSCC(=O)O)c(Cl)cc1Cl [PD152, 2-((2-((3,5-dichloro-6-isopropoxypyridin-2-yl)amino)-2-oxoethyl)thio)acetic acid]
46.7%: Diabetes incidence ([3]; 40 mg/Kg by gavage 5 days a week from 13 weeks, by 27 weeks of age)
3: Mean number of revertants [2, 5] | Mean number of revertants [2, 6] | Mean number of revertants [2, 8] | Mean number of revertants [2, 9] | Mean number of revertants [2, 10] | Mean number of revertants [2, 12] | Mean number of revertants [2, 13] | Mean number of revertants [2, 14] | Mean number of revertants [2, 16] | Mean number of revertants [2, 17] | Mean number of revertants [2, 18] | Mean number of revertants [2, 19] | Mean number of revertants [2, 21] | Mean number of revertants [2, 22]
3 to 4 h: half-life [1, 4]
4: Mean number of revertants [2, 7] | Mean number of revertants [2, 11] | Mean number of revertants [2, 15] | Mean number of revertants [2, 20] | Mean number of revertants [2, 23] | Mean number of revertants [2, 24]
2.6 h: Thalf ([1]; oral 10 mg/kg)
1: Fold increase [2, 5] | Fold increase [2, 6] | Fold increase [2, 7] | Fold increase [2, 8] | Fold increase [2, 9] | Fold increase [2, 10] | Fold increase [2, 11] | Fold increase [2, 12] | Fold increase [2, 13] | Fold increase [2, 14] | Fold increase [2, 15] | Fold increase [2, 16] | Fold increase [2, 17] | Fold increase [2, 18] | Fold increase [2, 19] | Fold increase [2, 20] | Fold increase [2, 21] | Fold increase [2, 22] | Fold increase [2, 23] | Fold increase [2, 24]
about 2 fold: Lower blood glucose levels, difference to control ([3]; at 27 weeks of age)
16.1 mL/min/kg: clearance [1, 4]
75%: bioavailability ([1]; mouse, plasma, single oral dose 10 mg/kg)
7.74: pKd (FABP4)
